Patent publication US11931365B2, “Use of PPAR-delta agonists in the treatment of disease” (Reneo Pharmaceuticals, Inc., priority 2022, dated 2024)
Read-outs that look alike come from different tables or passages of the source.

Experiments:
[1] = Stability of solid state forms (storage, drying), XRPD; type: physicochemical; conditions: for XRPD after static storage: 40° C./75% RH for 10 days; for XRPD after ambient storage: 24 hours, 48 hours, 7 days, or 10 days
Method: Samples were assessed for stability under ambient or static storage conditions of 25° C./[…] and 40° C./75% RH for 7 or 10 days. The samples were then re-analyzed by XRPD. Subsequent XRPD analysis results for the crystalline forms are described below: […]

[2] = XRPD re-analysis after GVS isotherm; type: physicochemical; conditions: after isotherm at 90% RH and 25° C.
Method: The samples were recovered after completion of the isotherm experiment at 90% RH and 25° C. and re-analyzed by XRPD.

[3] = Gravimetric Vapor Sorption (GVS); type: physicochemical; conditions: 25° C., w/w
Method: Sorption isotherms were obtained using a SMS DVS Intrinsic moisture sorption analyzer, controlled by DVS Intrinsic Control software. The sample temperature was maintained at 25° C. by the instrument controls. The humidity was controlled by mixing streams of dry and wet nitrogen, with a total flow rate of 200 ml/min. The relative humidity was measured by a calibrated Rotronic probe (dynamic range of 1.0-100% RH), located near the sample. The weight change, (mass relaxation) of the sample as a function of % RH was constantly monitored by a microbalance (accuracy ±0.005 mg).
Typically, 5-30 mg of sample was placed in a tared mesh stainless steel basket under ambient conditions. The sample was loaded and unloaded at 40% RH and 25° C. (typical room conditions). A moisture sorption isotherm was performed as outlined below (2 scans per complete cycle). The standard isotherm was performed at 25° C. at 10% RH intervals over a 0-90% RH range. Typically, a double cycle (4 scans) was carried out. Data analysis was carried out within Microsoft Excel using the DVS Analysis Suite.

[4] = tested on: VLCAD deficient cell line FB833; conditions: FB833 cells; WO18093839; cited from earlier work
[5] = tested on: healthy male volunteers, leg immobilization; experiment: Phase 1 placebo-controlled study in healthy volunteers with single limb immobilization; type: in vivo, human; parameters: Change from baseline in muscle strength, mean: unit not given beside the values
Method: In a prior clinical trial in healthy volunteers, Compound I was administered at dose of 100 mg twice daily for 28 days in healthy volunteers during and after a single limb immobilization (see NCT01524406). The study was conducted to evaluate the impact of Compound I on the recovery of muscle atrophy from leg immobilization, and improvements in cross section area (CSA) and muscle strength parameters expected in patients treated with study drug compared to those given placebo.
This phase 1, randomized, parallel group, placebo-controlled study was conducted at 2 centers in the United States. Fifty participants were planned for enrollment, 25 per group; participants could be replaced upon sponsor approval.
Screening was conducted 28 days before study start; eligibility was reviewed again at prespecified times during the study. Ambulatory, non-smoking, healthy male volunteers 30 to 55 years of age with a Body Mass Index (BMI) from 18 to 30 kg/m2 were recruited for the study. Key exclusion criteria included abnormal laboratory values at screening, a recent history of body weight fluctuations, positive urine drug screens, drug dependency or illicit drug use, professional sport participation within 30 days of screening, donation of whole blood within 90 days of dosing, and donation of plasma within 30 days of dosing. Concomitant medications within 14 days of dosing were not allowed unless approved by the sponsor. Those who had enrolled in another clinical trial within 90 days or had previously received Compound II were not allowed to participate.
Participants were randomly assigned 1:1 to receive either Compound II (100 mg BID) or matching placebo for 28 days using a computer generated randomization schedule provided by the sponsor. The principal investigator, study center staff, and participants were blinded to treatment; the protocol was amended so that sponsor personnel were not blinded. This change was made to allow investigation of observations concerning adherence to the protocol, discussed further in the pharmacodynamic results. Compound II and placebo were provided as capsules identical in appearance, taken orally with 240 ml of water prior to meals. Study drug was administered at the study site on Days 1 (PM dose), 6 (AM dose), 13 (PM dose), and 14, 15, 16, 29 (AM doses). At all other times study drug was self-administered just before breakfast and dinner. Dates and times were recorded in a diary, with compliance determined from the diaries and capsule counts. Study drug supplies were packaged according to the randomization codes by a contract research organization. Each dispensed bottle was labeled with the randomization number. Individual capsules were re-dispensed from these bottles by the study site staff, maintaining the blind. The total study duration for each subject was 42 days. Participants stayed overnight from Day 1 and Days 13 to 16.
Standardized meals, beverages and snacks were provided during the domicile periods. On Day 1, participants were leg-immobilized using a knee brace with […] on the left leg to allow driving. Walking crutches were provided to prevent weight bearing on the immobilized leg. An accelerometer was issued at screening and was used to count the number of steps per day. Participants were to walk 4000 to 6000 steps each day for the duration of the leg immobilization period, and recorded accelerometer readings each evening before bedtime. The brace was removed on Day 14, and participants resumed normal physical activity gradually from Days 16 to 29. After stopping study drug on Day 29, participants were to resume regular daily activity gradually for another 2 weeks. Consumption of prescribed medications or over the counter products was prohibited from 14 days prior to dosing and throughout the study, with the exception of the treatment of an adverse event. Participants were not to consume alcohol or caffeine containing food and beverages 3 days before each study visit and domicile periods. […]

[6] = tested on: CPT2-deficient myoblasts; conditions: Djouadi 2005; cited from earlier work
[7] = tested on: mice; conditions: cited from earlier work; for oxidative muscle fibers (and mitochondrial biogenesis) / physical performance / running endurance: combined with exercise
[8] = listed as amorphous Compound II
[9] = listed as crystalline Pattern 9 of Compound II
[10] = listed as crystalline Form 3 of Compound II
[11] = listed as crystalline Form 2 of Compound II

SMILES: Cc1cc(OC/C=C(/c2ccc(F)cc2)c2ccc(C#CCN3CCOCC3)cc2)ccc1OCC(=O)[O-].[Na+] [amorphous, sodium (E)-2-(4-((3-(4-fluorophenyl)-3-(4-(3-morpholinoprop-1-yn-1-yl)phenyl)allyl)oxy)-2-methylphenoxy)acetate]
- XRPD after static storage [1, 8]: unchanged
- XRPD after static storage ([1]; listed as amorphous solid form): no change
- XRPD after ambient storage [1, 8]: unchanged
- XRPD after ambient storage ([1]; listed as amorphous solid form): no change

SMILES: Cc1cc(OC/C=C(/c2ccc(F)cc2)c2ccc(C#CCN3CCOCC3)cc2)ccc1OCC(=O)[O-].[Na+] [Pattern 9, sodium (E)-2-(4-((3-(4-fluorophenyl)-3-(4-(3-morpholinoprop-1-yn-1-yl)phenyl)allyl)oxy)-2-methylphenoxy)acetate]
- Solid State Form After GVS (XRPD) [2]: Unchanged (Pattern 9)
- Solid State Form After GVS (XRPD) [2, 9]: unchanged
- Reversible Water Uptake between 0-90% RH [3]: ~27%
- Reversible Water Uptake between 0-90% RH [3, 9]: ~27%

SMILES: Cc1cc(OC/C=C(/c2ccc(F)cc2)c2ccc(C#CCN3CCOCC3)cc2)ccc1OCC(=O)[O-].[Na+] [Form 3, sodium (E)-2-(4-((3-(4-fluorophenyl)-3-(4-(3-morpholinoprop-1-yn-1-yl)phenyl)allyl)oxy)-2-methylphenoxy)acetate]
- Solid State Form After GVS (XRPD) [2]: Form 1
- Solid State Form After GVS (XRPD) [2, 10]: converts to Form 1
- XRPD form after storage ([1]; 40° C./75% RH/7 days): Form 1
- XRPD form after storage ([1]; 40° C./75% RH/7 days, listed as crystalline Form 3 of Compound II): converts to Form 1
- form change on drying [1]: converts to Form 1
- form change on standing ([1]; standing in ambient conditions): converts to Form 1
- Reversible Water Uptake between 0-90% RH [3]: ~9.0%
- Reversible Water Uptake between 0-90% RH [3, 10]: ~9.0%

SMILES: Cc1cc(OC/C=C(/c2ccc(F)cc2)c2ccc(C#CCN3CCOCC3)cc2)ccc1OCC(=O)[O-].[Na+] [Form 2, sodium (E)-2-(4-((3-(4-fluorophenyl)-3-(4-(3-morpholinoprop-1-yn-1-yl)phenyl)allyl)oxy)-2-methylphenoxy)acetate]
- Solid State Form After GVS (XRPD) [2]: Unchanged (Form 2)
- Solid State Form After GVS (XRPD) [2, 11]: unchanged
- XRPD form after storage ([1]; 25° C./97% RH/7 days): Unchanged (Form 2)
- XRPD form after storage ([1]; 25° C./97% RH/7 days, listed as crystalline Form 2 of Compound II): unchanged
- XRPD form after storage ([1]; 40° C./75% RH/7 days): Unchanged (Form 2)
- XRPD form after storage ([1]; 40° C./75% RH/7 days, listed as crystalline Form 2 of Compound II): unchanged
- Reversible Water Uptake between 0-90% RH [3]: ~25%
- Reversible Water Uptake between 0-90% RH [3, 11]: ~25%

SMILES: CCCc1c(OCCCOc2ccc(OCC(=O)O)cc2)ccc(C(C)=O)c1O [L-165,0411, [4-[3-(4-Acetyl-3-hydroxy-2-propylphenoxy)propoxy]phenoxy]acetic acid]
- VLCAD enzyme activity [4]: increase

SMILES: Cc1cc(OC/C=C(/c2ccc(F)cc2)c2ccc(C#CCN3CCOCC3)cc2)ccc1OCC(=O)[O-].[Na+] [Pattern 5, sodium (E)-2-(4-((3-(4-fluorophenyl)-3-(4-(3-morpholinoprop-1-yn-1-yl)phenyl)allyl)oxy)-2-methylphenoxy)acetate]
- stability of the solid form [1]: unstable

SMILES: Cc1cc(OC/C=C(/c2ccc(F)cc2)c2ccc(C#CCN3CCOCC3)cc2)ccc1OCC(=O)[O-].[Na+] [Form 5, sodium (E)-2-(4-((3-(4-fluorophenyl)-3-(4-(3-morpholinoprop-1-yn-1-yl)phenyl)allyl)oxy)-2-methylphenoxy)acetate]
- Solid State Form After GVS (XRPD) [2]: Form 1
- Solid State Form After GVS (XRPD) ([2]; listed as crystalline Form 5 of Compound II): converts to Form 1
- form change on drying [1]: converts to Form 1
- Reversible Water Uptake between 0-90% RH [3]: ~11%

SMILES: Cc1cc(OC/C=C(/c2ccc(F)cc2)c2ccc(C#CCN3CCOCC3)cc2)ccc1OCC(=O)[O-].[Na+] [Compound II, sodium (E)-2-(4-((3-(4-fluorophenyl)-3-(4-(3-morpholinoprop-1-yn-1-yl)phenyl)allyl)oxy)-2-methylphenoxy)acetate]
- participants discontinued due to an adverse event of elevated CK ([5]; 100 mg BID): 8.3%
- Change from baseline in muscle strength, mean ([5]; Day 14, 100 mg BID): −5.86
- Change from baseline in muscle strength, mean ([5]; Day 21, 100 mg BID): 32.82
- Change from baseline in muscle strength, mean ([5]; Day 29, 100 mg BID): 25.58
- Change from baseline in muscle strength, mean ([5]; Day 42, 100 mg BID): 37.96
- increase from baseline in PDK4, ANGPTL4 and SLC25A34 expression ([5]; muscle biopsies, from Day 14): up to 3.5 fold

SMILES: Cc1cc(OC/C=C(/c2ccc(F)cc2)c2ccc(C#CCN3CCOCC3)cc2)ccc1OCC(=O)[O-].[Na+] [Pattern 8, sodium (E)-2-(4-((3-(4-fluorophenyl)-3-(4-(3-morpholinoprop-1-yn-1-yl)phenyl)allyl)oxy)-2-methylphenoxy)acetate]
- form change on drying [1]: converts to Form 1

SMILES: Cc1cc(SCc2sc(-c3ccc(C(F)(F)F)c(F)c3)nc2C)ccc1OCC(=O)O [GW0742, [4-[[[2-[3-Fluoro-4-(trifluoromethyl)phenyl]-4-methyl-5-thiazolyl]methyl]thio]-2-methylphenoxy]acetic acid]
- VLCAD enzyme activity [4]: increase

SMILES: CC(C)(Sc1ccc(CCN(CCCCC2CCCCC2)C(=O)NC2CCCCC2)cc1)C(=O)O [GW 7647]
- FAO [6]: had no effect

SMILES: Cc1cc(SCc2sc(-c3ccc(C(F)(F)F)cc3)nc2C)ccc1OCC(=O)O [GW501516, 2-[2-Methyl-4-[[[4-methyl-2-[4-(trifluoromethyl)phenyl]-5-thiazolyl]methyl]thio]phenoxy]acetic acid]
- energy substrate usage ([7]; 8 weeks): clear shift in energy substrate usage from glucose to fatty acid oxidation
- oxidative muscle fibers (and mitochondrial biogenesis) ([7]; listed as GW1516): synergistically induced
- physical performance / running endurance ([7]; listed as GW1516): enhanced
- oxidative muscle fibers (and mitochondrial biogenesis) [7]: increase
- physical performance / running endurance [7]: enhance
- VLCAD enzyme activity [4]: increase
